Measured values taken from the supplement of paper PMC10307832.

Legend:
Assay in all cases: relative viability (nuclei count vs DMSO), 5 days (fraction); higher = more cells survive
NCI-H2087 = tested on: NCI-H2087
Outline: (§1)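 The day after seeding in 1536-well plates, lung cancer cell lines were treated by pin tool with a single drug, or with a fixed anchor-drug dose together with five library-drug doses (not always all listed) in √10 steps. After 5 days, a combined fix-and-stain solution (final 0.05% Triton X-100, 1% formaldehyde, 1 ug/ml Hoechst) was added. Nuclei counted on 4× images gave relative viability as treated counts over vehicle counts, reported as the median of duplicate plates.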

NCI-H2347 = tested on: NCI-H2347
Outline: as §1

EPLC-272H = tested on: EPLC-272H
Outline: as §1

COR-L 105 = tested on: COR-L 105
Outline: as §1

PC-14 = tested on: PC-14
Outline: as §1

H3255 = tested on: H3255
Outline: as §1

LCLC-97TM1 = tested on: LCLC-97TM1
Outline: as §1

NCI-H647 = tested on: NCI-H647
Outline: as §1

NCI-H2405 = tested on: NCI-H2405
Outline: as §1

ChaGo-K-1 = tested on: ChaGo-K-1
Outline: as §1

NCI-H322M = tested on: NCI-H322M
Outline: as §1

201T = tested on: 201T
Outline: as §1

Q: For `Oc1nc(-c2ccc(C(F)(F)F)cc2)nc2c1CSCC2` [XAV939] + C[C@@H](Oc1cc(-c2cnn(C3CCNCC3)c2)cnc1N)c1c(Cl)ccc(F)c1Cl [Crizotinib] (partner 1 µM), which relative viability (NCI-H2087; first compound 0.8 µM) is on record?
A: 0.715

Q: And the relative viability (NCI-H2087; first compound 2.53 µM)?
A: 0.797

Q: What about the relative viability (NCI-H2347; first compound 0.08 µM) of the same compound?
A: 0.692

Q: What about the relative viability (NCI-H2347; first compound 0.253 µM) of the same compound?
A: 0.648

Q: And the relative viability (NCI-H2347; first compound 0.8 µM)?
A: 0.75

Q: And the relative viability (NCI-H2347; first compound 2.53 µM)?
A: 0.515

Q: What about the relative viability (EPLC-272H; first compound 0.08 µM) of the same compound?
A: 0.956

Q: And the relative viability (EPLC-272H; first compound 0.253 µM)?
A: 0.96

Q: And the relative viability (EPLC-272H; first compound 0.8 µM)?
A: 0.995

Q: What about the relative viability (EPLC-272H; first compound 2.53 µM) of the same compound?
A: 0.908

Q: What about the relative viability (COR-L 105; first compound 0.08 µM) of the same compound?
A: 0.821

Q: What about the relative viability (COR-L 105; first compound 0.253 µM) of the same compound?
A: 0.762

Q: And the relative viability (COR-L 105; first compound 0.8 µM)?
A: 0.698

Q: What about the relative viability (COR-L 105; first compound 2.53 µM) of the same compound?
A: 0.621

Q: What about the relative viability (PC-14; first compound 0.08 µM) of the same compound?
A: 0.97

Q: What about the relative viability (PC-14; first compound 0.253 µM) of the same compound?
A: 0.818

Q: What about the relative viability (PC-14; first compound 0.8 µM) of the same compound?
A: 0.834

Q: What about the relative viability (PC-14; first compound 2.53 µM) of the same compound?
A: 0.749

Q: And the relative viability (H3255; first compound 0.08 µM)?
A: 0.942

Q: What about the relative viability (H3255; first compound 0.253 µM) of the same compound?
A: 0.873

Q: And the relative viability (H3255; first compound 0.8 µM)?
A: 0.725

Q: And the relative viability (H3255; first compound 2.53 µM)?
A: 0.7

Q: What about the relative viability (LCLC-97TM1; first compound 0.08 µM) of the same compound?
A: 0.488

Q: What about the relative viability (LCLC-97TM1; first compound 0.253 µM) of the same compound?
A: 0.344

Q: What about the relative viability (LCLC-97TM1; first compound 0.8 µM) of the same compound?
A: 0.361

Q: And the relative viability (LCLC-97TM1; first compound 2.53 µM)?
A: 0.305

Q: And the relative viability (NCI-H647; first compound 0.08 µM)?
A: 1.07

Q: And the relative viability (NCI-H647; first compound 0.253 µM)?
A: 1

Q: What about the relative viability (NCI-H647; first compound 0.8 µM) of the same compound?
A: 1.11

Q: What about the relative viability (NCI-H647; first compound 2.53 µM) of the same compound?
A: 0.9

Q: And the relative viability (NCI-H2405; first compound 0.08 µM)?
A: 0.906

Q: What about the relative viability (NCI-H2405; first compound 0.253 µM) of the same compound?
A: 0.816

Q: And the relative viability (NCI-H2405; first compound 0.8 µM)?
A: 0.808

Q: And the relative viability (NCI-H2405; first compound 2.53 µM)?
A: 0.775

Q: And the relative viability (ChaGo-K-1; first compound 0.08 µM)?
A: 1.28

Q: What about the relative viability (ChaGo-K-1; first compound 0.253 µM) of the same compound?
A: 1.16

Q: What about the relative viability (ChaGo-K-1; first compound 0.8 µM) of the same compound?
A: 1.07

Q: And the relative viability (ChaGo-K-1; first compound 2.53 µM)?
A: 0.883

Q: And the relative viability (NCI-H322M; first compound 0.08 µM)?
A: 1.03

Q: What about the relative viability (NCI-H322M; first compound 0.253 µM) of the same compound?
A: 0.83

Q: And the relative viability (NCI-H322M; first compound 0.8 µM)?
A: 0.911

Q: What about the relative viability (NCI-H322M; first compound 2.53 µM) of the same compound?
A: 0.547

Q: What about the relative viability (201T; first compound 0.08 µM) of the same compound?
A: 0.995

Q: What about the relative viability (201T; first compound 0.253 µM) of the same compound?
A: 1.03

Q: And the relative viability (201T; first compound 0.8 µM)?
A: 0.94

Q: And the relative viability (201T; first compound 2.53 µM)?
A: 0.866
